Values belong to the molecule of their own block, whether it stands above or below them. Residues, ends and D or L forms follow the SMILES beside them. *: point of attachment. Cbz = O=C(OCc1ccccc1)*; CH2F = FC*
Legend:
JM-1 cells = assay: Tamoxifen-inducible ICN1 (ICN1-ER-BD) in JM-1 subclones: PI, AnnexinV, RT-PCR; format: cell-based, human; conditions: JM-1 subclones with tamoxifen-inducible ICN1
From the text: To further characterize this effect, a retroviral vector containing a tamoxifen-inducible-ICN1 vector co-expressing GFP (ICN1+GFP) was stably transduced into three of the JM-1 human B-ALL leukemia/lymphoma′cell lines. To accomplish this, the estrogen receptor hormone-binding domain (ER-BD) was fused via a linker to ICN1. This fusion product was expressed on the MigR1 (MSCV-based) retroviral vector, which co-expresses GFP. JM-1 cells were transduced with this construct and subclones were selected for high expression. The GFP positive populations were sub cloned and individual clones expressing various levels of ICN1+GFP were analyzed after exposure to tamoxifen (FIG. 18A). Subclone JM-1.2 was exposed to tamoxifen and RT-PCR was performed (FIG. 18B). Growth arrest was shown by PI staining, apoptosis was measured by AnnexinV staining, and increased levels of Hairy expression were measured by RT-PCR. The percentage of non-GO/G1 cells was normalized to pre-treatment levels by duplicate experiments. The results of three experiments averaged ± standard deviation compared with EtOH control, and the average of duplicate experiments was relative to GAPDH expression and normalized to day 0 (pre-treatment) levels.
This effect was similar to the results seen with non-induced constructs.

V9 cells = assay: AnnexinV staining of ICN1-transduced V9 cells cultured with caspase inhibitor; format: cell-based, murine
Protocol: Apoptosis is frequently mediated by caspases, a family of cysteine proteases, whose activation leads to cell death. To further characterize the ICN1-induced cell death, ICN1-transduced V9 cells were cultured with either the general caspase inhibitor, zVAD (50 μM in DMSO), or DMSO alone (zVAD vehicle only), and analyzed 22 and 44 hours later (FIG. 3B). When cultured in control media (no zVAD), the great majority of GFP+ cells became AnnexinV positive by 22 hours post transduction, and few GFP positive cells remained at 44 hours (FIG. 3B, middle panel).
This may due to the incomplete inhibition of zVAD on the targeted caspases or, alternatively, caspase-independent pathways also contribute the B cell death.

[1] = target: Notch receptors on human B-ALL cell line JM-1; assay: cell-based or functional assay

Molecule: CC/C(=C(\c1ccccc1)c1ccc(OCCN(C)C)cc1)c1ccccc1 [tamoxifen]
cell cycle and apoptosis after induction (JM-1 cells): cell cycle (growth) arrest and apoptosis

Molecule: CC(NC(=O)C(NC(=O)OCc1ccccc1)C(C)C)C(=O)NC(CC(=O)O)C(=O)CF (stereo not drawn) [zVAD] (Cbz-Val-Ala-Asp-CH2F; configuration not given here)
ICN1-transduced cells becoming AnnexinV positive (V9 cells; 50 μM zVAD, 22 hours): only a few
protection of V9 cells from apoptosis (V9 cells; zVAD, up to 44 hours post-transduction): only partially protected

Hairy expression in B-ALL cells by RT-PCR at 24 hours of co-culture [1]: 5 fold
Molecule: human Jagged1 (from UniProt P78504 34-1218) (ligand)

Hairy expression in B-ALL cells by RT-PCR at 24 hours of co-culture [1]: 5 fold
Molecule: human Jagged2 (from UniProt Q9Y219 24-1238) (ligand)

From US20030181380A1, “Modulating lymphoid commitment and survival” (priority 2002, published 2003)
